Biological target: T1, PTP-1B (Homo sapiens, UniProt P18031)
T1 construct: PTP-1B (purified, 1 mg/mL) as a 1:250 dilution
T1 sequence (P18031 1-321 limits assumed): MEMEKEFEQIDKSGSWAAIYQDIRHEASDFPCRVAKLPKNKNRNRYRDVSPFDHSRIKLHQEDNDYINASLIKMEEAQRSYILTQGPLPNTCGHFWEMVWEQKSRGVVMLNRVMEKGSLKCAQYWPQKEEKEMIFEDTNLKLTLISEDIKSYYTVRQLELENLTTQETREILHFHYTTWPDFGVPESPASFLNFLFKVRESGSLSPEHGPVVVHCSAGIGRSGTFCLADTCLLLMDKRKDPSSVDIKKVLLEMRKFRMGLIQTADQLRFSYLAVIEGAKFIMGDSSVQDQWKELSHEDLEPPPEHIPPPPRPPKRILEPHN
Test: pNPP assay for tyrosine phosphatase inhibitory activity
Format: biochemical
Conditions: Table 1; pNPP substrate 10 mM, 30° C., 10 minutes, absorbance at 405 nm
Description: The compounds provided herein are evaluated for biological activity as inhibitors of PTP-1B using, for example, a pNPP assay. Such an assay can be used to screen compounds for tyrosine phosphatase inhibitory activity as shown in Example 39.
A 5× stock of pNPP (p-nitrophenol phosphate) substrate is prepared as 50 mM pNPP in assay buffer. Various tyrosine phosphatase solutions can be prepared as follows: • PTP-1B (purified, 1 mg/mL) as a 1:250 dilution (to a final concentration of 4:g/mL); • TC-PTP (NEB, 1000 units in 100:L) as a 1:50 dilution (to a final concentration of 2 U/10:L (4:g/mL)); • CD45 (Calbiochem, 20:g, 400 units in 100: L) as a 1 :50 dilution (to a final concentration of 0.8 U/10:L (4:g/mL)); • LAR (NEB, 1000 units in 200:L) as a 1:75 dilution (to a final concentration of 0.7 U/10:L (4:g/mL)); and • PTP-β (UBI, #14-350, 10,000 units, 40:g/571:L) as a 1:17.5 dilution (to a final concentration of 10 U/10:L (4:g/mL));
The compound to be tested is prepared as 1:16.7 and 1:50 dilutions from stock in a total volume of 1 00:M DMSO to give final concentrations of 626 and 200:M. The reaction mixtures are prepared in a 96-well microtiter plate (on ice) as 55:L assay buffer, 5:L of the diluted compound (to a final concentration of 31.3 and 10:M), 20:L of the pNPP substrate solution (to a final concentration of 10 mM) and 20:L PTPase in assay buffer. The reactants are mixed well, the plate placed in a water bath at 30° C. and incubated for 10 minutes. The reaction is then terminated by adding 1 OO:L of 2M K2CO3 per well, and the absorbance is measured at 405 nm by conventional means.
Unless otherwise indicated, this assay was used to determine activity for the selected compounds whose activity is recorded in Table 1 and Table 2.

Row | Compound | IC50
1 | COC(=O)c1ccc(CN(Cc2ccc(C(F)(F)P(=O)(O)O)cc2)c2nnc(-c3cccc(Oc4ccccc4)c3)o2)cc1 [4-({[4-(Difluoro-phosphono-methyl)-benzyl]-[5-(3-phenoxy-phenyl)-[1,3,4]oxadiazol-2-yl]-amino}-methyl)-benzoic acid methyl ester] | 10000 to 100000 nM
2 | O=P(O)(O)C(F)(F)c1ccc(CN(c2ccc(Cl)c(Cl)c2)c2ncc(-c3ccccc3)o2)cc1Br [Example 1, [(2-Bromo-4-{[(3,4-dichloro-phenyl)-(5-phenyl-oxazol-2-yl)-amino]-methyl}-phenyl)-difluoro-methyl]-phosphonic acid] | 1000 to 10000 nM
3 | O=C(O)c1ccc(-c2cnc(N(Cc3ccc(C(F)(F)P(=O)(O)O)c(Br)c3)c3ccc(Cl)c(Cl)c3)o2)cc1 [Example 3, 4-{2-[[3-Bromo-4-(difluoro-phosphono-methyl)-benzyl]-(3,4-dichloro-phenyl)-amino]-oxazol-5-yl}-benzoic acid] | < 100 nM
4 | COC(=O)c1ccc(-c2cnc(N(Cc3ccc(C(F)(F)P(=O)(O)O)c(Br)c3)c3ccccc3)o2)cc1 [Example 4, 4-(2-{[3-Bromo-4-(difluoro-phosphono-methyl)-benzyl]-phenyl-amino}-oxazol-5-yl)-benzoic acid methyl ester] | 1000 to 10000 nM
5 | CS(=O)(=O)c1ccc(-c2cnc(N(Cc3ccc(C(F)(F)P(=O)(O)O)c(Br)c3)c3ccc(Cl)c(Cl)c3)o2)cc1 [Example 6, {[2-Bromo-4-({(3,4-dichloro-phenyl)-[5-(4-methanesulfonyl-phenyl)-oxazol-2-yl]-amino}-methyl)-phenyl]-difluoro-methyl}-phosphonic acid] | < 100 nM
6 | CCOP(=O)(OCC)C(F)(F)c1ccc(CN(c2ccc(Cl)c(Cl)c2)c2ncc(-c3ccc(Oc4ccc(C(=O)OC)cc4)cc3)o2)cc1Br [Example 7, 4-(4-{2-[{3-Bromo-4-[(diethoxy-phosphoryl)-difluoro-methyl]-benzyl}-(3,4-dichloro-phenyl)-amino]-oxazol-5-yl}-phenoxy)-benzoic acid methyl ester] | 10000 to 100000 nM
7 | CCOP(=O)(OCC)C(F)(F)c1ccc(CN(c2ccc(Cl)c(Cl)c2)c2ncc(-c3ccc(S(C)(=O)=O)cc3)o2)cc1Br [Example 8, {[2-Bromo-4-({(3,4-dichloro-phenyl)-[5-(4-methanesulfonyl-phenyl)-oxazol-2-yl]-amino}-methyl)-phenyl]-difluoro-methyl}-phosphonic acid diethyl ester] | 10000 to 100000 nM
8 | CCOP(=O)(O)C(F)(F)c1ccc(CN(c2ccc(Cl)c(Cl)c2)c2ncc(-c3ccc(S(C)(=O)=O)cc3)o2)cc1Br [Example 9, {[2-Bromo-4-({(3,4-dichloro-phenyl)-[5-(4-methanesulfonyl-phenyl)-oxazol-2-yl]-amino}-methyl)-phenyl]-difluoro-methyl}-phosphonic acid monoethyl ester] | 10000 to 100000 nM
9 | COC(=O)c1ccc(Oc2ccc(-c3cnc(N(Cc4ccc(C(F)(F)P(=O)(O)O)c(Br)c4)c4ccc(Cl)c(Cl)c4)o3)cc2)cc1 [Example 10, 4-(4-{2-[[3-Bromo-4-(difluoro-phosphono-methyl)-benzyl]-(3,4-dichloro-phenyl)-amino]-oxazol-5-yl}-phenoxy)-benzoic acid methyl ester] | 1000 to 10000 nM
10 | CC(C)(C)C(=O)OCOP(=O)(O)C(F)(F)c1ccc(CN(c2ccc(Cl)c(Cl)c2)c2ncc(-c3ccc(S(C)(=O)=O)cc3)o2)cc1Br [Example 11, 2,2-Dimethyl-propionic acid {[2-bromo-4-({(3,4-dichloro-phenyl)-[5-(4-methanesulfonyl-phenyl)-oxazol-2-yl]-amino}-methyl)-phenyl]-difluoro-methyl}-hydroxy-phosphinoyloxymethyl ester] | 10000 to 100000 nM
11 | O=C(O)c1ccc(Oc2ccc(-c3cnc(N(Cc4ccc(C(F)(F)P(=O)(O)O)c(Br)c4)c4ccc(Cl)c(Cl)c4)o3)cc2)cc1 [Example 12, 4-(4-{2-[[3-Bromo-4-(difluoro-phosphono-methyl)-benzyl]-(3,4-dichloro-phenyl)-amino]-oxazol-5-yl}-phenoxy)-benzoic acid] | 100 to 500 nM
12 | COC(=O)c1ccccc1Oc1cccc(-c2cnc(N(Cc3ccc(C(F)(F)P(=O)(O)O)c(Br)c3)c3ccc(Cl)c(Cl)c3)o2)c1 [Example 14, 2-(3-{2-[[3-Bromo-4-(difluoro-phosphono-methyl)-benzyl]-(3,4-dichloro-phenyl)amino]-oxazol-5-yl}-phenoxy)-benzoic acid methyl ester] | 1000 to 10000 nM
13 | COC(=O)c1ccccc1-c1ccc(-c2cnc(N(Cc3ccc(C(F)(F)P(=O)(O)O)c(Br)c3)c3ccc(Cl)c(Cl)c3)o2)cc1 [Example 15, 4′-{2-[[3-Bromo-4-(difluoro-phosphono-methyl)-benzyl]-(3,4-dichloro-phenyl)-amino]-oxazol-5-yl}-biphenyl-2-carboxylic acid methyl ester] | 1000 to 10000 nM
14 | O=C(O)c1ccccc1Oc1cccc(-c2cnc(N(Cc3ccc(C(F)(F)P(=O)(O)O)c(Br)c3)c3ccc(Cl)c(Cl)c3)o2)c1 [Example 18, 2-(3-{2-[[3-Bromo-4-(difluoro-phosphono-methyl)-benzyl]-(3,4-dichloro-phenyl)-amino]-oxazol-5-yl}-phenoxy)-benzoic acid] | 100 to 500 nM
15 | O=C(O)c1ccccc1-c1cccc(-c2cnc(N(Cc3ccc(C(F)(F)P(=O)(O)O)c(Br)c3)c3ccc(Cl)c(Cl)c3)o2)c1 [Example 20, 3′-{2-[[3-Bromo-4-(difluoro-phosphono-methyl)-benzyl]-(3,4-dichloro-phenyl)-amino]-oxazol-5-yl}-biphenyl-2-carboxylic acid] | 100 to 500 nM

Continued, values first:

Row | IC50 | Compound
16 | 10000 to 100000 nM | CS(=O)(=O)c1ccc(-c2cnc(N(Cc3ccc(/C=C/C(=O)O)c(Br)c3)c3ccc(Cl)c(Cl)c3)o2)cc1 [3-[2-Bromo-4-({(3,4-dichloro-phenyl)-(5-(4-methanesulfonyl-phenyl)-oxazol-2-yl]-amino}-methyl)-phenyl]-acrylic acid]
17 | 1000 to 10000 nM | O=C(O)c1ccc(CN(Cc2ccc(C(F)(F)P(=O)(O)O)cc2)c2nnc(-c3cccc(Oc4ccccc4)c3)o2)cc1 [4-({[4-(Difluoro-phosphono-methyl)-benzyl]-[5-(3-phenoxy-phenyl)-[1,3,4]oxadiazol-2-yl]-amino}-methyl)-benzoic acid]
18 | 500 to 1000 nM | COC(=O)c1ccc(-c2cnc(N(Cc3ccc(C(F)(F)P(=O)(O)O)c(Br)c3)c3ccc(Cl)c(Cl)c3)o2)cc1 [Example 2, 4-{2-[[3-Bromo-4-(difluoro-phosphono-methyl)-benzyl]-(3,4-dichloro-phenyl)-amino]-oxazol-5-yl}-benzoic acid methyl ester]
19 | 100 to 500 nM | O=C(O)c1ccc(-c2cnc(N(Cc3ccc(C(F)(F)P(=O)(O)O)c(Br)c3)c3ccccc3)o2)cc1 [Example 5, 4-(2-{[3-Bromo-4-(difluoro-phosphono-methyl)-benzyl]-phenyl-amino}-oxazol-5-yl)-benzoic acid]
20 | 1000 to 10000 nM | COC(=O)C(Oc1cccc(-c2cnc(N(Cc3ccc(C(F)(F)P(=O)(O)O)c(Br)c3)c3ccc(Cl)c(Cl)c3)o2)c1)c1ccccc1 (centres unmarked) [Example 13, (3-{2-[[3-Bromo-4-(difluoro-phosphono-methyl)-benzyl]-(3,4-dichloro-phenyl)-amino]-oxazol-5-yl}-phenoxy)-phenyl-acetic acid methyl ester]
21 | < 100 nM | O=C(O)C(Oc1cccc(-c2cnc(N(Cc3ccc(C(F)(F)P(=O)(O)O)c(Br)c3)c3ccc(Cl)c(Cl)c3)o2)c1)c1ccccc1 (centres unmarked) [Example 16, (3-{2-[[3-Bromo-4-(difluoro-phosphono-methyl)-benzyl]-(3,4-dichloro-phenyl)-amino]-oxazol-5-yl}-phenoxy)-phenyl-acetic acid]
22 | 100 to 500 nM | O=C(O)c1ccccc1-c1ccc(-c2cnc(N(Cc3ccc(C(F)(F)P(=O)(O)O)c(Br)c3)c3ccc(Cl)c(Cl)c3)o2)cc1 [Example 17, 4′-{2-[[3-Bromo-4-(difluoro-phosphono-methyl)-benzyl]-(3,4-dichloro-phenyl)-amino]-oxazol-5-yl}-biphenyl-2-carboxylic acid]
23 | 1000 to 10000 nM | COC(=O)c1ccccc1-c1cccc(-c2cnc(N(Cc3ccc(C(F)(F)P(=O)(O)O)c(Br)c3)c3ccc(Cl)c(Cl)c3)o2)c1 [Example 19, 3′-{2-[[3-Bromo-4-(difluoro-phosphono-methyl)-benzyl]-(3,4-dichloro-phenyl)-amino]-oxazol-5-yl}-biphenyl-2-carboxylic acid methyl ester]

Reference: patent US20060135483A1, “Oxygen/nitrogen heterocycle inhibitors of tyrosine phosphatases” (priority 2004, published 2006)
